Data from US20080262445A1, “Transdermal Delivery of Hydrophobic Bioactive Agents” (DERMATRENDS, INC., priority 2004, published 2008).
Like-named read-outs stand apart in the source and are kept apart here.

What was measured:
[1] = type: in vitro ADME; conditions: human, pH 7.4
Method: An in vitro skin permeation study was conducted using one ondansetron transdermal patch. The formulations used to prepare these systems are listed in Table 1, which includes weight and percent weight of each component of the dried formulations. “PVPP’ refers to a commercially available polyvinyl polypyrrolidone powder, which was added in an amount sufficient to balance the liquid nature of other solubizing agents in order to maintain the physical integrity of the patch. Other suitable and generally inert powders that can be used will become apparent to those skilled in the art, given the present description. “Duratak” is a tradename and refers to a commercially available polyisobutylene adhesive liquid available from National Starch and Chemical.
Each formulation was coated on a release liner and dried in an oven at 65° C. for two hours to remove water and other solvents. […]
The in vitro permeation of ondansetron through human cadaver skin from these discs was performed using Franz diffusion cells with a diffusion area of 1 cm^2 and a receiver solution capacity of 8 ml. […] The receiver solution collected was analyzed by HPLC to determine the concentration of ondansetron. The cumulative amount of ondansetron that permeated across the human cadaver skin was calculated using the measured ondansetron concentrations in the receiver solutions, which were plotted versus time and shown in FIG. 1. […]

[2] = Final pH of the patch; type: physicochemical; conditions: pH of the transdermal patch

cumulative amount of ondansetron that permeated through the skin ([1]; 24 h): 0.26 mg/cm^2
cumulative amount of ondansetron that permeated through the skin ([1]; 51 h): 0.51 mg/cm^2
final patch pH [2]: 4.7
Compound: Cc1nccn1CC1CCc2c(c3ccccc3n2C)C1=O (stereo not drawn) [ondansetron, 1,2,3,9-tetrahydro-9-methyl-3-[(2-methyl-1H-imidazol-1-yl)methyl]-4H-carbazol-4-one]
